From US20230399319A1, “Acylsulfamide Compound and Pharmaceutical Use Therefor” (Japan Tobacco Inc., priority 2019, published 2023) come the findings set out here.

For the first assay, the target named is NLRP3 inflammasome (Homo sapiens (Human), UniProt Q96P20). In words: Evaluation of NLRP3 inflammasome inhibitory activity (inhibition of IL-1β production in THP1-Null cells, LPS/Nigericin).
Chain of NLRP3 inflammasome (Q96P20 whole entry): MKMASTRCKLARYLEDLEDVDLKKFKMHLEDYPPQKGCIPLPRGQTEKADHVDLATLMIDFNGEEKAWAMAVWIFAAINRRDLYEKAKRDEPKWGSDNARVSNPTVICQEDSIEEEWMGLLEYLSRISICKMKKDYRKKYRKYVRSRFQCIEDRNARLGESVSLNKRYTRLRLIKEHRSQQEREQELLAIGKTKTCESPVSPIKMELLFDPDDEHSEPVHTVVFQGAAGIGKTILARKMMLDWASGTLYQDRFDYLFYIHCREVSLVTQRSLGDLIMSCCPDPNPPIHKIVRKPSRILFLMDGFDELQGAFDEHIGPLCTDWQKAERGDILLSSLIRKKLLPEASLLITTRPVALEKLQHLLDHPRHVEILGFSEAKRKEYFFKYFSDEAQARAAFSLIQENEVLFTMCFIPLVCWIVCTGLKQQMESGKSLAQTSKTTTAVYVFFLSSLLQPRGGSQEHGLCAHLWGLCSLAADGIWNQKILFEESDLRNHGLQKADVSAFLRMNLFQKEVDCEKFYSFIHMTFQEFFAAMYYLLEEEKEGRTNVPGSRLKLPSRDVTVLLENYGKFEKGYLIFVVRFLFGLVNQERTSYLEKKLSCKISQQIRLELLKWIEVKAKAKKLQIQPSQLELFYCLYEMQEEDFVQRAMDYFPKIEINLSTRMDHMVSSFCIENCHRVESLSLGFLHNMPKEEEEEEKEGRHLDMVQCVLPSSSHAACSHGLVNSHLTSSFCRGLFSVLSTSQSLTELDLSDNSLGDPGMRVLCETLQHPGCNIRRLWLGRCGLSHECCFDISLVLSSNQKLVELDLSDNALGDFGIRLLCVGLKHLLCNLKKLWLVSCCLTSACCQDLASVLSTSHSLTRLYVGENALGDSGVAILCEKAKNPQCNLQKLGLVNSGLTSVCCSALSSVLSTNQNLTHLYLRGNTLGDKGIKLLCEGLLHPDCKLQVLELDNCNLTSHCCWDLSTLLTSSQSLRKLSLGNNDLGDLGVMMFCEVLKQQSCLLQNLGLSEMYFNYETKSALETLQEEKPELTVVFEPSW
Conditions: not given
For orientation: IC50 means the concentration needed to halve the response being measured. Compound `COC(C)c1ccc(C)c(Nc2nc(C(=O)NS(=O)(=O)N(C)C)co2)c1` (racemic) [Example 2-061] yielded an IC50 of 570 nM.
In turn, `CC(=O)N(C)C1CCCN(S(=O)(=O)NC(=O)c2coc(Nc3cc(C(F)(F)F)ccc3C)n2)CC1` (racemic) [Example 2-232] displayed an IC50 of 30 nM.
Still for that read-out and setting: for `Cc1ccc(C(F)(F)F)cc1Nc1nc(C(=O)NS(=O)(=O)N2CCOCC(C#N)C2)co1` (racemic) [Example 2-127] the value was 130 nM; for `CC(C)c1ccc(C(F)F)cc1Nc1nc(C(=O)NS(=O)(=O)N2CCCN(S(=O)(=O)C3CCOC3)CC2)co1` (racemic) [Example 2-226], 97 nM; for `Cc1ccc2c(c1Nc1nc(C(=O)NS(=O)(=O)N3CCC(O)C3)co1)CCC2` (racemic) [Example 30], 190 nM.
The same measure, in the same setting: for `COC1COCCN(S(=O)(=O)NC(=O)c2coc(Nc3cc(C(F)(F)F)c(F)cc3C)n2)C1` (racemic) [Example 2-244] the value was 51 nM; for `COC1COCCN(S(=O)(=O)NC(=O)c2coc(Nc3cc(C)ccc3C(C)C)n2)C1` (racemic) [Example 2-310], 98 nM; for `Cc1ccc(C(C)C)cc1Nc1nc(C(=O)NS(=O)(=O)N2CCOCC2C)co1` (racemic) [Example 2-081], 94 nM.
Still for that read-out and setting: for `COC(=O)C1COCCN1S(=O)(=O)NC(=O)c1coc(Nc2c3c(c(Cl)c4c2CCC4)CCC3)n1` (racemic) [Example 72] the value was 310 nM; for `CC(C)c1cn(C(C)C)nc1Nc1nc(C(=O)NS(=O)(=O)N2CCOCCC2C)co1` (racemic) [Example 2-184], 140 nM; for `CCCCS(=O)(=O)N1CCN(S(=O)(=O)NC(=O)c2coc(Nc3cc(C(F)(F)F)ccc3C)n2)CC(F)C1` (racemic) [Example 2-197], 17 nM.
`COCC1CN(S(=O)(=O)NC(=O)c2coc(Nc3c4c(c(Cl)c5c3CCC5)CCC4)n2)CCO1` (racemic) [Example 38] yielded an IC50 of 73 nM.
In turn, `CCCS(=O)(=O)N1CCN(S(=O)(=O)NC(=O)c2coc(Nc3cc(C)ccc3C)n2)CC(OC)C1` (racemic) [Example 2-251] yielded an IC50 of 32 nM.
`CN(C1CCOC1)S(=O)(=O)NC(=O)c1cnc(Nc2c3c(cc4c2CCC4)CCC3)o1` (racemic) [Example 24] returned an IC50 of 160 nM.
As to `Cc1ccc(C(F)(F)F)cc1Nc1nc(C(=O)NS(=O)(=O)N2CCOCC2C)co1` (racemic) [Example 2-005], the IC50 came out at 30 nM.
Take `CN(C)C1CCN(S(=O)(=O)NC(=O)c2coc(Nc3c4c(c(F)c5c3CCC5)CCC4)n2)C1` (racemic) [Example 74]: the IC50 amounted to 180 nM.
`CCS(=O)(=O)N1CCCN(S(=O)(=O)NC(=O)c2coc(Nc3cc(C(F)(F)F)ccc3C)n2)C(C)C1` (racemic) [Example 2-241] displayed an IC50 of 37 nM.
Compound `COC1COCCN(S(=O)(=O)NC(=O)c2coc(Nc3cc(C(C)C)ccc3C)n2)C1` (racemic) [Example 2-294] gave an IC50 of 37 nM.
As for `COC(=O)CC1COCCN1S(=O)(=O)NC(=O)c1coc(Nc2c3c(c(Cl)c4c2CCC4)CCC3)n1` (racemic) [Example 73], the IC50 was 160 nM.

Staying with this assay, now noted: IL-1β production in THP1-Null cells, PMA/LPS primed, Nigericin 7.5 μmol/L.
Compound `CN(C)S(=O)(=O)NC(=O)c1cnc(Nc2cccc3c2CCC3)o1` [Example 19] came in with a half-inhibitory concentration (IC50) of 5700 nM.
Compound `O=C(NS(=O)(=O)N1CCOCC1)c1coc(Nc2c3c(c(Cl)c4c2CCC4)CCC3)n1` [Example 37] returned an IC50 of less than 30 nM.
Same read-out and setting: to `COC1CN(S(=O)(=O)NC(=O)c2cnc(Nc3c4c(cc5c3CCC5)CCC4)o2)C1` [Example 17] belongs 830 nM.
For the compound `C[C@@H]1CCCN1S(=O)(=O)NC(=O)c1coc(Nc2c3c(c(Cl)c4c2CCC4)CCC3)n1` [Example 45], inhibition was half-maximal at 200 nM (IC50).
On to `Cc1ccc(C(F)(F)F)cc1Nc1nc(C(=O)NS(=O)(=O)N2CC3CCC(C2)O3)co1` [Example 77], for which the IC50 was found to be 56 nM.
Compound `Cc1ccc(C(F)(F)F)cc1Nc1nc(C(=O)NS(=O)(=O)N2CCOCC2)co1` [Example 70] showed an IC50 of less than 30 nM.
`O=C(NS(=O)(=O)N1CCCC1)c1coc(Nc2c3c(c(Cl)c4c2CCC4)CCC3)n1` [Example 34] returned an IC50 of 48 nM.
Same read-out and setting: for `O=C(NS(=O)(=O)N1CCCC1)c1coc(Nc2c3c(cc4c2CCC4)CCC3)n1` [Example 22] the value was less than 30 nM; for `CN(C)S(=O)(=O)NC(=O)c1cnc(Nc2c3c(c(F)c4c2CCC4)CCC3)o1` [Example 26], 130 nM.

The same assay, now with this note: inhibition of IL-1β production in THP1-Null cells.
`COC1COCCN(S(=O)(=O)NC(=O)c2coc(Nc3cc(C(F)(F)F)ccc3C)n2)C1` (single isomer, unassigned) [Example 2-218] showed an IC50 of 72 nM.
Same read-out and setting: to `Cc1ccc(C(F)(F)F)cc1Nc1nc(C(=O)NS(=O)(=O)N2CCCN(c3cnccn3)CC2)co1` [Example 2-245] belongs 73 nM.
`CCCS(=O)(=O)N1CCCN(S(=O)(=O)NC(=O)c2coc(Nc3cc(C)c(C)cc3C)n2)CC1` [Example 2-289] came in with an IC50 of 46 nM.
The compound `CCCC(=O)N1CCCN(S(=O)(=O)NC(=O)c2coc(Nc3cc(C(F)F)ccc3C(C)C)n2)CC1` [Example 2-223] displayed a half-inhibitory concentration (IC50) of 71 nM.
In turn, `CCCS(=O)(=O)N1CCCN(S(=O)(=O)NC(=O)c2coc(Nc3cc(C(F)(F)F)ccc3C)n2)CC1` [Example 2-100] gave an IC50 of 10 nM.
In turn, `Cc1cc(F)c(C(F)(F)F)cc1Nc1nc(C(=O)NS(=O)(=O)N2CCCOCC2)co1` [Example 2-213] came in with an IC50 of 39 nM.
`Cc1ccc(C2(C#N)CC2)cc1Nc1nc(C(=O)NS(=O)(=O)N2CCCOCC2)co1` [Example 2-107] had a 50% inhibitory concentration (IC50) of 150 nM.
`COC1CCN(S(=O)(=O)NC(=O)c2coc(Nc3cc(C(F)(F)F)ccc3C)n2)CC1` [Example 2-158]: the IC50 was 100 nM.
For `Cc1ccc(C(F)(F)F)cc1Nc1nc(C(=O)NS(=O)(=O)N(C)C)cs1` [Example 2-062], half-maximal inhibition (IC50) required 48 nM.
Regarding `Cc1ccc(C(F)(F)F)cc1Nc1nc(C(=O)NS(=O)(=O)N2CCc3nncn3CC2)co1` [Example 2-217], the IC50 was less than 3000 nM.
With `Cc1ccc(C(C)C)cc1Nc1nc(C(=O)NS(=O)(=O)N2CCOCC2(C)C)co1` [Example 2-098], the half-inhibitory concentration (IC50) is 250 nM.
`Cc1ccc(C(F)F)cc1Nc1nc(C(=O)NS(=O)(=O)N2CCCOCC2)co1` [Example 2-043] registered a concentration for half-maximal inhibition (IC50) of 49 nM.
As to `Cc1ccc(C(F)(F)F)cc1Nc1nc(C(=O)NS(=O)(=O)N2CCCN(c3ccncn3)CC2)co1` [Example 2-214], 89 nM corresponded to half-maximal inhibition (IC50).
The compound `Cc1ccc(C(F)(F)F)cc1Nc1nc(C(=O)NS(=O)(=O)N2CCOC(C#N)CC2)co1` (stereo not drawn) [Example 2-264] registered an IC50 of 38 nM.
On the same count and under the same terms, for `CC(C)n1nc2c(c1Nc1nc(C(=O)NS(=O)(=O)N(C)C)co1)CCC2` [Example 2-014] the value was 6000 nM; for `Cc1ccc(C2(C)CC2)cc1Nc1nc(C(=O)NS(=O)(=O)N(C)C)co1` [Example 2-044], 60 nM.
Compound `CCCS(=O)(=O)N1CCCN(S(=O)(=O)NC(=O)c2coc(Nc3cc(CC)ccc3CC)n2)CC1` [Example 2-258] had an IC50 of 18 nM.
Compound `CCS(=O)(=O)N1CCCN(S(=O)(=O)NC(=O)c2coc(Nc3cc(C(F)(F)F)ccc3C)n2)CC1` [Example 2-064] displayed an IC50 of 26 nM.
Same read-out and setting: for `CCCS(=O)(=O)N1CCCN(S(=O)(=O)NC(=O)c2coc(Nc3cc(Cl)ccc3C)n2)CC1` [Example 2-291] the value was 73 nM.
On to `Cc1ccc(C(F)(F)F)cc1Nc1nc(C(=O)NS(=O)(=O)N2CCOC(C(=O)N(C)C)CC2)co1` (stereo not drawn) [Example 2-263], for which the IC50 was determined as 79 nM.
Still for that read-out and setting: to `Cc1ccc(C2CC2)cc1Nc1nc(C(=O)NS(=O)(=O)N(C)C)co1` [Example 2-035] belongs 220 nM; to `COCC1CCN(S(=O)(=O)NC(=O)c2coc(Nc3cc(C)ccc3C)n2)CCO1` (stereo not drawn) [Example 2-299], 190 nM.
In turn, `CCc1ccc(C(F)(F)F)cc1Nc1nc(C(=O)NS(=O)(=O)N2CCCOCC2)co1` [Example 2-059] yielded an IC50 of less than 30 nM.
Compound `Cc1ccc(C(C)C)c(Nc2nc(C(=O)NS(=O)(=O)N3CCCOCC3)co2)c1` [Example 2-308] displayed a 50% inhibitory concentration (IC50) of 82 nM.
Turning to `COCCOCC1CCN(S(=O)(=O)NC(=O)c2coc(Nc3cc(C)ccc3C)n2)CCO1` (stereo not drawn) [Example 2-345], the half-inhibitory concentration (IC50) turned out to be 71 nM.
On the same count and under the same terms, to `CC(C)c1ccc(C(F)(F)F)c(Nc2nc(C(=O)NS(=O)(=O)N3CCCOCC3)co2)c1` [Example 2-176] belongs 18000 nM; to `Cc1ccc(C(F)(F)F)cc1Nc1nc(C(=O)NS(=O)(=O)N2CCCN(c3nccc(C(C)C)n3)CC2)co1` [Example 2-186], 41 nM; to `Cc1ccc(C(C)C)cc1Nc1nc(C(=O)NS(=O)(=O)N2CCCOCC2)cs1` [Example 2-056], less than 30 nM.
For `CC(C)n1cc(Nc2nc(C(=O)NS(=O)(=O)N3CCCOCC3)co2)c(C(C)(C)C)n1` [Example 2-194], the IC50 is 1500 nM.
Take `CCCS(=O)(=O)N1CCCN(S(=O)(=O)NC(=O)c2coc(Nc3ccccc3C)n2)CC1` [Example 2-269]: half-maximal inhibition (IC50) required 350 nM.
The same measure, in the same setting: to `Cc1ccc(C(C)(C)C)cc1Nc1nc(C(=O)NS(=O)(=O)N(C)C)co1` [Example 2-069] belongs 66 nM; to `CCOCC1CCN(S(=O)(=O)NC(=O)c2coc(Nc3nn(C(C)C)cc3C(C)C)n2)CCO1` (stereo not drawn) [Example 2-344], 65 nM; to `Cc1ccc(C(F)F)cc1Nc1nc(C(=O)NS(=O)(=O)N(C)C)co1` [Example 2-010], 120 nM.

Staying with this assay, now noted: read-out: % inhibition at 3 μM.
As a reminder, the inhibition is the relative decrease from the control value, in per cent. As for `COCCCc1cc(C)c(Nc2nc(C(=O)NS(=O)(=O)N(C)C)co2)cc1C(C)C` [Example 2-238], the inhibition at 3 µM stood at 11%.
As to `Cc1ccc(C)c(Nc2nc(C(=O)NS(=O)(=O)N3CCC[C@H]3CN3CCCC3)co2)c1` [Example 2-321], the inhibition at 3 µM was -11%.
For `CC(C)Cc1nn(C(C)C)cc1Nc1nc(C(=O)NS(=O)(=O)N2CCCOCC2)co1` [Example 2-180], the inhibition at 3 µM was -3%.
`Cc1cn(CC(C)C)nc1Nc1nc(C(=O)NS(=O)(=O)N2CCCOCC2)co1` [Example 2-189]: the inhibition at 3 µM came out at 16%.
On to `CC(C)c1cnc(C(F)(F)F)nc1Nc1nc(C(=O)NS(=O)(=O)N2CCCOCC2)co1` [Example 2-144], for which the inhibition at 3 µM was 23%.
